Measured values reported in the NIST ThermoML archive (doi:10.1016/j.fluid.2009.02.007).

Assay: osmotic coefficient (dimensionless); mn = molality of the nth substance listed, in mol/kg
Conditions: 101 kPa, Liquid, Vapor pressure osmometry

CCOS(=O)(=O)[O-].CCn1cc[n+](C)c1 [1-ethyl-3-methylimidazolium ethyl sulfate] + O
osmotic coefficient
Conditions	298.15 K	308.15 K	318.15 K	328.15 K
m1 = 0.0086	0.973	0.981	1.019	1.018
m1 = 0.0185	0.957	0.943	0.972	0.975
m1 = 0.0284	0.937	0.921	0.934	0.955
m1 = 0.0376	0.921	0.917	0.93	0.936
m1 = 0.057	0.871	0.862	0.868	0.886
m1 = 0.0749	0.852	0.862	0.859	0.858
m1 = 0.0938	0.83	0.838	0.845	0.85
m1 = 0.1269	0.815	0.817	0.831	0.842
m1 = 0.1704	0.782	0.797	0.813	0.815
m1 = 0.2087	0.774	0.779	0.797	0.815
m1 = 0.2648	0.754	0.764	0.797	0.8
m1 = 0.3276	0.751	0.766	0.793	0.796
m1 = 0.4235	0.736	0.755	0.776	0.787
m1 = 0.5106	0.724	0.745	0.772	0.781
m1 = 0.6979	0.712	0.727	0.742	0.755
m1 = 0.8919	0.706	0.721	0.73	0.747
m1 = 1.12	0.697	0.711	0.717	0.729
m1 = 1.606	0.696	0.707	0.715	0.719
m1 = 1.889	0.694	0.707	0.717	0.726
m1 = 2.763	0.733	0.747	0.759	0.766

CCCCn1cc[n+](C)c1.F[B-](F)(F)F [1-butyl-3-methylimidazolium tetrafluoroborate] + O
osmotic coefficient
Conditions	298.15 K	308.15 K	318.15 K	328.15 K
m1 = 0.012	1.023	1.009	1.006	0.994
m1 = 0.0223	0.994	0.974	0.986	0.978
m1 = 0.0369	0.987	0.959	0.955	0.965
m1 = 0.045	0.956	0.956	0.96	0.959
m1 = 0.0652	0.952	0.926	0.937	0.92
m1 = 0.0855	0.862	0.879	0.892	0.9
m1 = 0.1058	0.854	0.872	0.887	0.883
m1 = 0.1629	0.825	0.823	0.826	0.839
m1 = 0.2108	0.804	0.787	0.802	0.797
m1 = 0.2695	0.749	0.766	0.766	0.772
m1 = 0.3284	0.699	0.708	0.748	0.761
m1 = 0.4307	0.677	0.685	0.693	0.726
m1 = 0.533	0.648	0.666	0.673	0.685
m1 = 0.6375	0.619	0.622	0.634	0.647
m1 = 0.7233	0.575	0.587	0.61	0.632
m1 = 0.9322	0.523	0.545	0.564	0.589
m1 = 1.292	0.462	0.495	0.508	0.517
m1 = 2.066	0.392	0.396	0.412	0.415

CCCCn1cc[n+](C)c1.COS(=O)(=O)[O-] [1-butyl-3-methylimidazolium methyl sulfate] + O
osmotic coefficient
Conditions	298.15 K	308.15 K	318.15 K	328.15 K
m1 = 0.0132	0.923	0.937	0.968	0.987
m1 = 0.0225	0.895	0.921	0.958	0.977
m1 = 0.0328	0.884	0.897	0.94	0.966
m1 = 0.0434	0.863	0.885	0.896	0.959
m1 = 0.0634	0.837	0.872	0.882	0.896
m1 = 0.078	0.821	0.836	0.877	0.887
m1 = 0.1205	0.809	0.813	0.839	0.874
m1 = 0.157	0.791	0.809	0.839	0.858
m1 = 0.1944	0.78	0.802	0.814	0.857
m1 = 0.2801	0.767	0.779	0.802	0.84
m1 = 0.3552	0.741	0.758	0.775	0.81
m1 = 0.4687	0.721	0.749	0.762	0.8
m1 = 0.7057	0.71	0.74	0.756	0.786
m1 = 0.9552	0.698	0.716	0.732	0.76
m1 = 1.44	0.692	0.708	0.73	0.752
m1 = 2.177	0.693	0.7	0.726	0.743
